Experimental data from PMC11694061 (Cancer Research, 2024).
Read-outs that look alike come from different tables or passages of the source.

Key:
[1] = molecular target: T1, SOS1 in K562 cells (Homo sapiens, UniProt Q07889); assay: SOS1 degradation in K562 cells (Western blot); type: cell-based
T1 construct: endogenous in cells; host or cells: K562
T1 sequence (Q07889 1-1333): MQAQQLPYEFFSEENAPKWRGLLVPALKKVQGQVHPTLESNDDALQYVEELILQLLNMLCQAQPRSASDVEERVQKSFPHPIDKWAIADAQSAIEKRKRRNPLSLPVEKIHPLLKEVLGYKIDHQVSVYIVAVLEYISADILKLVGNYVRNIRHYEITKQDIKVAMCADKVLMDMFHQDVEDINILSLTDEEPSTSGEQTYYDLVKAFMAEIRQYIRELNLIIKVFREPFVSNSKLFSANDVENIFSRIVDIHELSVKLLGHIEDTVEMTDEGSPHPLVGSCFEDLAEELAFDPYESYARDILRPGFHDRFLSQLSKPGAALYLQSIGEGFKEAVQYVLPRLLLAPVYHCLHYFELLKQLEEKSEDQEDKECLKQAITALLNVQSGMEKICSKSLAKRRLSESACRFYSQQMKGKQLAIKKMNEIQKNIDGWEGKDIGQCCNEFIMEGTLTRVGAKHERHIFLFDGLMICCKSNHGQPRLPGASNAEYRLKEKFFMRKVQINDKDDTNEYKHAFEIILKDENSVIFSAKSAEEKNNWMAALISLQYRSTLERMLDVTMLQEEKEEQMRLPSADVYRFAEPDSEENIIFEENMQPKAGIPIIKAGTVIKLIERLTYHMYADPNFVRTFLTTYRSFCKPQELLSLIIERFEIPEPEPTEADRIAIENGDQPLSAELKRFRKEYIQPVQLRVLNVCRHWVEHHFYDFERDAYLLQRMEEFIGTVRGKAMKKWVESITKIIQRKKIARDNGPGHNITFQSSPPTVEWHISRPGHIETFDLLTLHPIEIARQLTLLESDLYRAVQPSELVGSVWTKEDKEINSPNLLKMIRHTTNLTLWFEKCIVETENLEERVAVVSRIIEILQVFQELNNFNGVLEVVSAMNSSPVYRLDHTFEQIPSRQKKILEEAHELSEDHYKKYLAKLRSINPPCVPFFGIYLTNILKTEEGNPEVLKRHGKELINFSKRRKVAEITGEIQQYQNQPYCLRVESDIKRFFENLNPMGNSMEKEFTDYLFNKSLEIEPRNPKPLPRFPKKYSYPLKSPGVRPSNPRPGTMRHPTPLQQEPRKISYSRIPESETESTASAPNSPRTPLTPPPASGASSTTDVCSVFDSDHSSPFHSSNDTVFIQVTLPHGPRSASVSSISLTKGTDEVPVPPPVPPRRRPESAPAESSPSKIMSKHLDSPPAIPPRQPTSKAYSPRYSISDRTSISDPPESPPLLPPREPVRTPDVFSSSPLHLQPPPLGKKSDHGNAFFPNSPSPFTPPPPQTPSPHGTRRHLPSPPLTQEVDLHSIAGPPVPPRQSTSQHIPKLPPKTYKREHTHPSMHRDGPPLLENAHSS
Description: After treatment, the cells were harvested with SDS lysis buffer, and SDS-PAGE gels were used to split the proteins in the lysate solutions. […] AB_2758039).

[2] = test system: K562 cells; assay: Proliferation, K562; type: cell-based, human; details: Table S1 screening, read-out: IC50 (cell proliferation inhibition in K562 cells)
Procedure: Cells were inoculated onto 96-well plates and treated with compounds in serial dilutions for 3 or 5 days. […] The cell viability of primary patient samples was tested using the CellTiter-Glo Luminescent Assay kit (G7573, Promega) according to the manufacturer’s instructions. […] The optical density (OD) values were obtained using a SPARK microplate reader (Tecan). IC50 was calculated using GraphPad Prism 8.0.2 (nonlinear regression analysis with four parameters). Drug synergy was evaluated with combination index (CI) values using CalcuSyn Demo Version 2.0 software. CI > 1 indicates antagonism, CI < 1 indicates synergy, and CI = 1 indicates additivity.

Row | SMILES | percent SOS1 degradation at 0.1 µM ([1]; 0.1 μM) [%] | percent SOS1 degradation at 1 µM ([1]; 1.0 μM) [%] | IC50 ([2]; Homo sapiens, K562) [µM] | Degradation of SOS1 (%) ([1]; 0.1 μM) | Degradation of SOS1 (%) ([1]; 1.0 μM) | IC50 [2] [µM]
1 | COc1cc2nc(C)nc(N[C@H](C)c3cc(N)cc(C(F)(F)F)c3)c2cc1O[C@H]1CCN(C(=O)CCCCCCSc2cccc3c2CN(C2CCC(=O)NC2=O)C3=O)C1 (stereo partly drawn) [SIAIS561095] | 26.7 ± 3 | 3.9 ± 4.7 | 5.23 ± 1.39 |  |  | 
2 | COc1cc2nc(C)nc(N[C@H](C)c3cc(N)cc(C(F)(F)F)c3)c2cc1OC1CCN(C(=O)CCSc2cccc3c2CN(C2CCC(=O)NC2=O)C3=O)CC1 (stereo partly drawn) [SIAIS561132] | -14.7 ± 10.2 | -3.8 ± 4.2 | 0.112 ± 0.0042 |  |  | 
3 | COc1cc2nc(C)nc(N[C@H](C)c3cc(N)cc(C(F)(F)F)c3)c2cc1OC1CCN(C(=O)CSc2cccc3c2CN(C2CCC(=O)NC2=O)C3=O)CC1 (stereo partly drawn) [SIAIS561131] | 12.3 ± 6.5 | -2.3 ± 9.5 | 17.8 ± 3.9 |  |  | 
4 | COc1cc2nc(C)nc(N[C@H](C)c3cc(N)cc(C(F)(F)F)c3)c2cc1O[C@H]1CCN(C(=O)CCCSc2cccc3c2CN(C2CCC(=O)NC2=O)C3=O)C1 (stereo partly drawn) [SIAIS561094] | 32.9 ± 0.4 | 35.3 ± 0.6 | 7.13 ± 0.224 |  |  | 
5 | COc1cc2nc(C)nc(N[C@H](C)c3cc(N)cc(C(F)(F)F)c3)c2cc1O[C@H]1CCN(CCCSc2cccc3c2CN(C2CCC(=O)NC2=O)C3=O)C1 (stereo partly drawn) [SIAIS561084] |  |  |  | 7.3 ± 8.5 | -19.5 ± 2.2 | 1.31 ± 0.176
6 | COc1cc2nc(C)nc(N[C@H](C)c3cc(N)cc(C(F)(F)F)c3)c2cc1OC1CCN(C(=O)CCCCSc2cccc3c2CN(C2CCC(=O)NC2=O)C3=O)CC1 (stereo partly drawn) [SIAIS561134] | 5.2 ± 12.8 | 14.2 ± 11.1 | 3.6 ± 0.103 |  |  | 
7 | COc1cc2nc(C)nc(N[C@H](C)c3cc(N)cc(C(F)(F)F)c3)c2cc1O[C@H]1CCN(C(=O)CSc2cccc3c2CN(C2CCC(=O)NC2=O)C3=O)C1 (stereo partly drawn) [SIAIS561092] | -26.5 ± 8.3 | 8.1 ± 2.3 | 7.29 ± 1.01 |  |  | 
8 | COc1cc2nc(C)nc(N[C@H](C)c3cc(N)cc(C(F)(F)F)c3)c2cc1O[C@H]1CCN(C(=O)CCSc2cccc3c2CN(C2CCC(=O)NC2=O)C3=O)C1 (stereo partly drawn) [SIAIS561093] | 19.9 ± 1.8 | 24.7 ± 4.4 | 16.4 ± 2.44 |  |  | 
9 | COc1cc2nc(C)nc(N[C@H](C)c3cc(N)cc(C(F)(F)F)c3)c2cc1OC1CCN(C(=O)CCCSc2cccc3c2CN(C2CCC(=O)NC2=O)C3=O)CC1 (stereo partly drawn) [SIAIS561133] | -26.7 ± 1.7 | -4 ± 11.7 | 1.67 ± 0.0177 |  |  | 
10 | COc1cc2nc(C)nc(N[C@H](C)c3cc(N)cc(C(F)(F)F)c3)c2cc1O[C@H]1CCN(C(=O)CCCCSc2cccc3c2CN(C2CCC(=O)NC2=O)C3=O)C1 (stereo partly drawn) [SIAIS561086] | 22.7 ± 1.7 | 33.5 ± 4.7 | 7.69 ± 0.0912 |  |  | 
11 | COc1cc2nc(C)nc(N[C@H](C)c3cc(N)cc(C(F)(F)F)c3)c2cc1OC1CCN(C(=O)CCCCCSc2cccc3c2CN(C2CCC(=O)NC2=O)C3=O)CC1 (stereo partly drawn) [SIAIS561135] | 11.3 ± 4.8 | 12.7 ± 6.3 | 1.85 ± 0.455 |  |  | 
12 | COc1cc2nc(C)nc(N[C@H](C)c3cc(N)cc(C(F)(F)F)c3)c2cc1O[C@H]1CCN(C(=O)CCCCCCCSc2cccc3c2CN(C2CCC(=O)NC2=O)C3=O)C1 (stereo partly drawn) [SIAIS561096] | 57.2 ± 0.7 | 49.7 ± 0.9 | 1.55 ± 0.0714 |  |  | 
13 | COc1cc2nc(C)nc(N[C@H](C)c3cc(N)cc(C(F)(F)F)c3)c2cc1O[C@H]1CCN(C(=O)CCCCCSc2cccc3c2CN(C2CCC(=O)NC2=O)C3=O)C1 (stereo partly drawn) [SIAIS561087] | 53.5 ± 0.6 | 39.9 ± 0.9 | 6.51 ± 0.514 |  |  | 
14 | COc1cc2nc(C)nc(N[C@H](C)c3cc(N)cc(C(F)(F)F)c3)c2cc1O[C@H]1CCN(CCSc2cccc3c2CN(C2CCC(=O)NC2=O)C3=O)C1 (stereo partly drawn) [SIAIS561091] |  |  |  | 36.2 ± 5.7 | 27.0 ± 7.5 | 1.2 ± 0.0658
15 | COc1cc2nc(C)nc(N[C@H](C)c3cc(N)cc(C(F)(F)F)c3)c2cc1O[C@H]1CCN(C(=O)CCCCCCCCCCSc2cccc3c2CN(C2CCC(=O)NC2=O)C3=O)C1 (stereo partly drawn) [SIAIS561098] | 1.1 ± 1 | 17 ± 2.2 | 11.5 ± 0.515 |  |  | 
16 | COc1cc2nc(C)nc(N[C@H](C)c3cc(N)cc(C(F)(F)F)c3)c2cc1O[C@H]1CCN(C(=O)CCCCCCCCCSc2cccc3c2CN(C2CCC(=O)NC2=O)C3=O)C1 (stereo partly drawn) [SIAIS561097] | -10.2 ± 5.5 | -20.9 ± 9 | 15.1 ± 2.04 |  |  | 

Now from value to molecule:

Row | percent SOS1 degradation at 0.1 µM ([1]; 0.1 μM) [%] | percent SOS1 degradation at 1 µM ([1]; 1.0 μM) [%] | IC50 ([2]; Homo sapiens, K562) [µM] | Degradation of SOS1 (%) ([1]; 0.1 μM) | Degradation of SOS1 (%) ([1]; 1.0 μM) | IC50 [2] [µM] | SMILES
17 | 21.3 ± 0.5 | 71 ± 1.6 | 4.68 ± 1.21 |  |  |  | COc1cc2nc(C)nc(N[C@H](C)c3cc(N)cc(C(F)(F)F)c3)c2cc1O[C@H]1CCN(C(=O)CCCCCCCCCCCSc2cccc3c2CN(C2CCC(=O)NC2=O)C3=O)C1 (stereo partly drawn) [SIAIS562082]
18 | 4.6 ± 1.8 | 38.7 ± 1.1 | 0.846 ± 0.157 |  |  |  | COc1cc2nc(C)nc(N[C@H](C)c3cc(N)cc(C(F)(F)F)c3)c2cc1O[C@H]1CCN(CCCCCCCCCCCSc2cccc3c2CN(C2CCC(=O)NC2=O)C3=O)C1 (stereo partly drawn) [SIAIS562019]
19 | 30.4 ± 0.3 | 86.4 ± 0.4 | 0.822 ± 0.083 |  |  |  | COc1cc2nc(C)nc(N[C@H](C)c3cc(N)cc(C(F)(F)F)c3)c2cc1O[C@H]1CCN(CCCCCCCCCCCCSc2cccc3c2CN(C2CCC(=O)NC2=O)C3=O)C1 (stereo partly drawn) [SIAIS562020]
20 | -14.6 ± 1.1 | 11 ± 0.6 | 8.97 ± 0.146 |  |  |  | COc1cc2nc(C)nc(N[C@H](C)c3cc(N)cc(C(F)(F)F)c3)c2cc1OC1CCN(C(=O)CCCCCCCCCCSc2cccc3c2CN(C2CCC(=O)NC2=O)C3=O)CC1 (stereo partly drawn) [SIAIS561138]
21 | -5.4 ± 2.2 | 35.5 ± 1 | 4.13 ± 0.34 |  |  |  | COc1cc2nc(C)nc(N[C@H](C)c3cc(N)cc(C(F)(F)F)c3)c2cc1OC1CCN(C(=O)CCCCCCCCCCCSc2cccc3c2CN(C2CCC(=O)NC2=O)C3=O)CC1 (stereo partly drawn) [SIAIS562083]
22 | 18.2 ± 6.2 | 49.3 ± 2.2 | 2.53 ± 0.261 |  |  |  | COc1cc2nc(C)nc(N[C@H](C)c3cc(N)cc(C(F)(F)F)c3)c2cc1OC1CCN(C(=O)CCCCCCSc2cccc3c2CN(C2CCC(=O)NC2=O)C3=O)CC1 (stereo partly drawn) [SIAIS561136]
23 | 3.6 ± 3.2 | 15.7 ± 3 | 3.06 ± 1.1 |  |  |  | COc1cc2nc(C)nc(N[C@H](C)c3cc(N)cc(C(F)(F)F)c3)c2cc1OC1CCN(C(=O)CCCCCCCCCSc2cccc3c2CN(C2CCC(=O)NC2=O)C3=O)CC1 (stereo partly drawn) [SIAIS561137]
24 | 44.4 ± 6.5 | 49.7 ± 14 | 7.08 ± 0.216 |  |  |  | COc1cc2nc(C)nc(N[C@H](C)c3cc(N)cc(C(F)(F)F)c3)c2cc1O[C@H]1CCN(C(=O)CCCCCCCCSc2cccc3c2CN(C2CCC(=O)NC2=O)C3=O)C1 (stereo partly drawn) [SIAIS562079]
25 | -46.9 ± 11 | 5.5 ± 3.2 | 4.95 ± 0.412 |  |  |  | COc1cc2nc(C)nc(N[C@H](C)c3cc(N)cc(C(F)(F)F)c3)c2cc1OC1CCN(C(=O)CCCCCCCCSc2cccc3c2CN(C2CCC(=O)NC2=O)C3=O)CC1 (stereo partly drawn) [SIAIS562080]
26 | -15.2 ± 2 | 7.7 ± 4.3 | 2.75 ± 0.36 |  |  |  | COc1cc2nc(C)nc(N[C@H](C)c3cc(N)cc(C(F)(F)F)c3)c2cc1OC1CCN(C(=O)CCCCCCCSc2cccc3c2CN(C2CCC(=O)NC2=O)C3=O)CC1 (stereo partly drawn) [SIAIS561139]
